In ChEMBL document CHEMBL1123329, “Aromatase inhibitors. Synthesis and evaluation of mammary tumor inhibiting activity of 3-alkylated 3-(4-aminophenyl)piperidine-2,6-diones” (J Med Chem, 1986):
Where “and” joins values, the source holds several entries; their conditions need not be identical. Equal entries are not always repeated.

Legend:
[1] = organism: Rattus norvegicus; type: functional; details: dose 20 mg/kg
[2] = organism: Rattus norvegicus; type: functional; details: dose 20 mg/kg; remark: listed apart in the source

In the case of `C[C@]12CC[C@H]3[C@@H](CCC4=CC(=O)CC[C@@]43C)[C@@H]1CC[C@@H]2O` [TESTOSTERONE], the Uterine weight effect [1] is reported as 23.3 and 29.3 and 34.7 and the “Change of tumor area” value [2] is reported as -37% and -24% and -29%.
